Test results: ChEMBL document CHEMBL1201862, “PubChem BioAssay data set” (2004)
Activity calls are given as the source filed them.

How the values were obtained:
[1] = intracellular Trypanosoma cruzi inhibitors in host cells – cell-based, plate reader, cherry-pick samples, set 3, dose response (AID 651818); type: functional;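 note: compounds incubated with infected cells for about four days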
[2] = microbe, parasite or virus in culture; type: functional; conditions: Mycobacterium tuberculosis
BJ [3] = assay: cytotoxicity toward BJ-TERT fibroblasts, dose response, cell-based, RAS-independent, luminescence (AID 1933); type: functional; conditions: Homo sapiens
BJ [4] = assay: cells; type: functional, cell-based; conditions: Homo sapiens
[5] = target: Luciferin 4-monooxygenase (Photinus pyralis, UniProt P08659); assay: firefly luciferase enzyme inhibitors, dose response, biochemical, luminescence (AID 1891)
Chain of Luciferin 4-monooxygenase (P08659 whole entry): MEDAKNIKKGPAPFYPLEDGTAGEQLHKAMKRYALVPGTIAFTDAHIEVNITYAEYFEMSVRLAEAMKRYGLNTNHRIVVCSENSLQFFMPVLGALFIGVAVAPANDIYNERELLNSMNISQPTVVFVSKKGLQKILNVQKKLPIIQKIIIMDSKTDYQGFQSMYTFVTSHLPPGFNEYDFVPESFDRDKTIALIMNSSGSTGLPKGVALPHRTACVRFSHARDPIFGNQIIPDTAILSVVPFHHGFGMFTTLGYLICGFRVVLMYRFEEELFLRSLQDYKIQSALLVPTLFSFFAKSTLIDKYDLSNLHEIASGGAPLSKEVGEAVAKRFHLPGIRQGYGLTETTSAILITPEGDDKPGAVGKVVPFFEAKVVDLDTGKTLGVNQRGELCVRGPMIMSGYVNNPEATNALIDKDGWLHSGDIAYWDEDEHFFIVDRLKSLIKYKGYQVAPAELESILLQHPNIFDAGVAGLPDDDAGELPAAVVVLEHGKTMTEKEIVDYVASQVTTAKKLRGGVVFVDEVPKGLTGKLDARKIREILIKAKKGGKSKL

[6] = Luminescence Cell-Based Dose Confirmation HTS to Identify Inhibitors of Platelet Dense Granule Release. [Related pubchem assays: 1663 (Primary HTS), 1678 (Summary of Project)]; type: functional
BJ [7] = assay: cytotoxicity toward BJ-TERT-LT-ST fibroblasts, dose response, cell-based, RAS-independent, luminescence (AID 1935); type: functional; conditions: Homo sapiens;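 note: BJ fibroblasts immortalized with TERT plus LT and ST oncogenes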
[8] = cytotoxicity toward DRD oncogenic fibroblasts, dose response, cell-based, non-viral oncogenic, luminescence (AID 1934); type: functional; conditions: Homo sapiens
INS1 = assay: beta cell apoptosis inhibitors, cytokine rescue, dose response, luminescence, retest (AID 449756); type: functional, cell-based; conditions: Rattus norvegicus;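 note: cell death triggered by IL-1 beta plus TNF-alpha plus IFN-gamma mixture; protective hits raise ATP signal compared with cytokine alone wells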
cells = type: functional
[9] = target: T1, Replicative DNA helicase DnaB (Mycobacterium tuberculosis, UniProt P9WMR3); assay: DnaB intein splicing inhibitors, dose response, biochemical, cell-free fluorescence (AID 449749); type: functional
T1 sequence (P9WMR3 whole entry): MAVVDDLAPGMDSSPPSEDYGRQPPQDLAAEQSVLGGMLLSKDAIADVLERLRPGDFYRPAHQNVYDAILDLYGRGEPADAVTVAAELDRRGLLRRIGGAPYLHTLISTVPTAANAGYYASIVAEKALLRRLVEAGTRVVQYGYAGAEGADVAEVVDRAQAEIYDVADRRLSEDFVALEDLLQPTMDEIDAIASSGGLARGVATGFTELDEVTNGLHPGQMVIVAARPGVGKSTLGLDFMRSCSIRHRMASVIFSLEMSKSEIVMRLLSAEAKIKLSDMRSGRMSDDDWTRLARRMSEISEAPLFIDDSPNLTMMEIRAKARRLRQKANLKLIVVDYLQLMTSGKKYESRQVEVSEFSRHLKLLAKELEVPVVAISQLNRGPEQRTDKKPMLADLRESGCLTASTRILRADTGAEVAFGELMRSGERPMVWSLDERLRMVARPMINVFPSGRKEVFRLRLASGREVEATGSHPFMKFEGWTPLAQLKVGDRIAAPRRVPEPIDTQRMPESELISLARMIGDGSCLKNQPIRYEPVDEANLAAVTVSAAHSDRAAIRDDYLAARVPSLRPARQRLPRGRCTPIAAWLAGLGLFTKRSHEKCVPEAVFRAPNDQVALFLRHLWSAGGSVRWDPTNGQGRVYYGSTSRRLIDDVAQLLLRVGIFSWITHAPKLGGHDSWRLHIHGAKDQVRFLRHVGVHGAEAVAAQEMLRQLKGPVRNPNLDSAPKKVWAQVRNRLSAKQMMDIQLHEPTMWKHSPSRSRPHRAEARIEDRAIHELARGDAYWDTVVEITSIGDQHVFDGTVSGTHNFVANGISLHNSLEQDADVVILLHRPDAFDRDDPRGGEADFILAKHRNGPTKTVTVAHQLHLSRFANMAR

Protein RecA = target: T2, Protein RecA (Mycobacterium tuberculosis, UniProt P9WHJ3); assay: Fluorescence Cell-Free Homogeneous Dose Retest to Identify Inhibitors of RecA-Intein Splicing Activity. [Related pubchem assays (depositor defined):AID2097, AID2223, AID489010, AID492950]; type: functional
T2 sequence (P9WHJ3 whole entry): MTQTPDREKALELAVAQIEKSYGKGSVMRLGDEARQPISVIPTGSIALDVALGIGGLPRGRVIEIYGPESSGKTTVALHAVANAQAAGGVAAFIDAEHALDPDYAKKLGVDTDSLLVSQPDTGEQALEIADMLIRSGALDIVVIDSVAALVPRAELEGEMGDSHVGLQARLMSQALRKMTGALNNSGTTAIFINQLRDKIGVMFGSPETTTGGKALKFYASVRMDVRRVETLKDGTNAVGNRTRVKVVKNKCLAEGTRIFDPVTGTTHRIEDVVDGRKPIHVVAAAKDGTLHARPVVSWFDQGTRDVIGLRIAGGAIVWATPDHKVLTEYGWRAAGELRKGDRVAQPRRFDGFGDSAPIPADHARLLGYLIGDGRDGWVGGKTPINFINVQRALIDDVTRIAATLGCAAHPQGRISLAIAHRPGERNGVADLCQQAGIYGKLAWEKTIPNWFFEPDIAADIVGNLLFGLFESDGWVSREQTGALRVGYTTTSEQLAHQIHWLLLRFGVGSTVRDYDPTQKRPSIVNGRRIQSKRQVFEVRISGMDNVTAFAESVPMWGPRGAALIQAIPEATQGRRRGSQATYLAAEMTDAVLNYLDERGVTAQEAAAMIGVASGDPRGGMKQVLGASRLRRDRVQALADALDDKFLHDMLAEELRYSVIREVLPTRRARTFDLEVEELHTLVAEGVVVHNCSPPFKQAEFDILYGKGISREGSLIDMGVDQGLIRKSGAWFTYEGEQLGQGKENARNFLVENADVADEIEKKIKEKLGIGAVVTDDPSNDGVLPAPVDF

Genome polyprotein = Genome polyprotein (dengue virus type 2, UniProt P29990); assay: Dengue-2 NS5 methyltransferase inhibitors, primary screen, biochemical, confirmation dose response (AID 588689); type: functional
Chain of Genome polyprotein (P29990 2492-3391 limits assumed): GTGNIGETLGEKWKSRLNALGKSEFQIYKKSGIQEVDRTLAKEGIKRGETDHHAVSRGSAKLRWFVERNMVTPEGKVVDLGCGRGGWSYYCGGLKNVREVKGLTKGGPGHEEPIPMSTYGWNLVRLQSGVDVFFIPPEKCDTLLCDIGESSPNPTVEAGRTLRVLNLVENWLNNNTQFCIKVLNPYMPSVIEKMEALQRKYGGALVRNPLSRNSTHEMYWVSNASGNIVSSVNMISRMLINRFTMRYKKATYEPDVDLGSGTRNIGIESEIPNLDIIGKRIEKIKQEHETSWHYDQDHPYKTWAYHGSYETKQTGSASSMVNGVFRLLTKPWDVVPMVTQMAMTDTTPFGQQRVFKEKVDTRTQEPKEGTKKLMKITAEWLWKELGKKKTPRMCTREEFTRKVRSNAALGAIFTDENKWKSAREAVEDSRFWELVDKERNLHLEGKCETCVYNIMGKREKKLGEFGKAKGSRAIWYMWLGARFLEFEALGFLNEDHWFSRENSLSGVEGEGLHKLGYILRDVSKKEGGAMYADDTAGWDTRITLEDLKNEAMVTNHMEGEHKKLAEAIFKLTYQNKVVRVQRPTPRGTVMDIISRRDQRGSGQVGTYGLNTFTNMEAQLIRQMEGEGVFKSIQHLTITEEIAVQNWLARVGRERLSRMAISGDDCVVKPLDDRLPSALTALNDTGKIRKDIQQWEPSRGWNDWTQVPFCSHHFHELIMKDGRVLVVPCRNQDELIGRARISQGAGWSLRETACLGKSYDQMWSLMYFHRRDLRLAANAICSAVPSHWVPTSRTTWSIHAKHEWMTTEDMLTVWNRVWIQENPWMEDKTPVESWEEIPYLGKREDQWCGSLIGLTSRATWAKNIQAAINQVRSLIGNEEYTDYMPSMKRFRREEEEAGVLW

[10] = inhibitors of HIV Env-driven cell fusion, dose response, cherry-pick (AID 652057); type: functional, cell-based
[11] = ZM109 Env clade C HIV-1 fusion inhibitors, dose response, HeLa effector, CEM target cells, luciferase, cherry-pick (AID 652058); type: functional, cell-based
[12] = off-target signal loss in HeLa-CEM21 co-culture – HeLa F-luc CTL cells, cherry-picked, counter-screen for HIV-1 Env fusion inhibitor project, dose response (AID 652040); type: functional, cell-based;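 note: potency for signal decrease marking cytotoxic or nonspecific inhibition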
[13] = inhibitors of clade B AD8 Env fusion, dose response, cell-based, cherry-pick (AID 652062); type: functional;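 note: luciferase signal from cell-cell fusion driven by HIV-1 clade B AD8 Env; potency is for inhibitors of fusion seen as a drop in luminescence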
[14] = target: Heat shock protein HSP 90-alpha (Homo sapiens, UniProt P07900); type: functional, organism-based
[15] = target: FAD-linked sulfhydryl oxidase ALR (Homo sapiens, UniProt P55789); assay: inhibitors of human ALR sulfhydryl oxidase, dose response, biochemical, H2O2 detection, luminescence, cherry-pick (AID 493248)
Chain of FAD-linked sulfhydryl oxidase ALR (P55789 whole entry): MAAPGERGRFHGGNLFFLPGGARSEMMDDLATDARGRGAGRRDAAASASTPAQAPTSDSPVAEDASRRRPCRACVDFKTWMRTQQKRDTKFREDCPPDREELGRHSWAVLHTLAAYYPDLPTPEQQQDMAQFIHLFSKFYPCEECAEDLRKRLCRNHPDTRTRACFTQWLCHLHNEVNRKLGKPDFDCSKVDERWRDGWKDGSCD

[16] = Luminescence Cell-Based Dose Retest to Confirm Inhibitors of Cancer Stem Cells. [Related pubchem assays (depositor defined):AID2717, AID2721]; type: functional; conditions: Homo sapiens
[17] = tested on: Streptococcus sp. 'group A'; assay: growth inhibition of control SK(-) GAS strain, dose response, counter-screen for streptokinase expression inhibitor project, luminescence, kanamycin, BacTiterGlo, confirmation (AID 1900); type: functional, organism-based
Streptokinase A = target: T3, Streptokinase A (Streptococcus pyogenes serotype M1, UniProt P10520); assay: S. pyogenes streptokinase expression inhibitors, potency, dose response, plasminogen activation absorbance, OD405 (AID 1914); type: functional, Streptococcus pyogenes M1 GAS;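 note: secreted streptokinase activity via plasminogen activation per viability signal from cell pellet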
T3 sequence (P10520 whole entry): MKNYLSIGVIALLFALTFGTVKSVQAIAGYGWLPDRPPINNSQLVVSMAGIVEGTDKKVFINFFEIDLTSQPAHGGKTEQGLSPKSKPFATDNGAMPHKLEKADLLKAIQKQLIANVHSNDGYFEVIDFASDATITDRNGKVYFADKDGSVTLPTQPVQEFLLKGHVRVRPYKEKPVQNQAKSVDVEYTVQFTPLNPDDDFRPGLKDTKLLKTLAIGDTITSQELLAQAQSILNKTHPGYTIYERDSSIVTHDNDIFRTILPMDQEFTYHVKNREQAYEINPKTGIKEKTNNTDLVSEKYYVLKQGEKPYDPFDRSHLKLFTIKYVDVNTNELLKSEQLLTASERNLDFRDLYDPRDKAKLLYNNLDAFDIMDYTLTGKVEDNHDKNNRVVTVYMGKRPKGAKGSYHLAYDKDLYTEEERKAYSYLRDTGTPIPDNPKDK

Streptococcus = assay: Group A Streptococcus viability loss, dose response, counter-screen for streptokinase expression inhibitor project, luminescence, BacTiterGlo (AID 1915); type: functional, organism-based;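 note: potency for reduction of bacterial viability or growth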

SMILES: C[C@H](CO)N1C[C@H](C)[C@H](CN(C)Cc2ccc(C(=O)Nc3ccccc3N)cc2)Oc2ccc(NC(=O)Nc3ccc(C(F)(F)F)cc3)cc2CC1=O
- AC50 [1]: 1.86 µM (active)

SMILES: COc1cc(Br)cc(/C=N/NC(=O)c2ccccc2O)c1O
- AC50 [1]: 1.49 µM (active)

SMILES: CC(C(c1ccc2c(c1)OCO2)c1c(N)n(C)c(=O)n(C)c1=O)[N+](=O)[O-] (stereo unspecified)
- CC50 [2]: 36.3 µM (active)

SMILES: COc1cc(NC(=O)c2ccccc2)c(OC)cc1NC(=O)CSc1nc(O)cc(C)c1C#N
- EC50 (BJ [3]): 73.6 µM (inconclusive)
- EC50 (BJ [4]): 36 µM (inconclusive)
- EC50 [5]: > 112 µM (not active)
- EC50 [6]: 1.21 µM (active)
- EC50 (BJ [7]): > 150 µM (not active)
- EC50 [8]: 34.7 µM (active)

SMILES: COc1ccc(N/C=C/C(=O)c2sc(-c3ccccc3)nc2C)cc1
- CC50 [2]: > 40 µM (active)

SMILES: C[C@H]1CN([C@@H](C)CO)C(=O)Cc2cc(NS(=O)(=O)c3ccc(Cl)cc3)ccc2O[C@H]1CN(C)Cc1ccccc1
- AC50 [1]: 4.6 µM (active)

SMILES: Nc1c(N(CCC2=CCCCC2)C(=O)COc2ccc(F)cc2)c(=O)[nH]c(=O)n1Cc1ccccc1
- AC50 (INS1): 4.49 µM (active)

SMILES: CN(C(=O)c1cccc(Nc2ccc(-c3ccc4c(c3)OCCO4)nn2)c1)C1CCCCC1
- CC50 [2]: 28.4 µM (active)

SMILES: O=C1NC(=O)C(=Cc2ccc(Oc3ccc([N+](=O)[O-])cc3)cc2)C(=O)N1
- IC50 (cells): 43 µM (active)
- AC50 [9]: 29.5 µM (active)
- EC50 (Protein RecA): > 380 µM (inactive)
- IC50 (Genome polyprotein): 34.5 µM (active)

SMILES: C[C@H]1CN([C@@H](C)CO)C(=O)Cc2cc(NC(=O)Nc3cccc4ccccc34)ccc2O[C@@H]1CN(C)Cc1ccc(Oc2ccccc2)cc1
- AC50 [1]: 3.12 µM (active)

SMILES: C[C@H]1CN([C@@H](C)CO)C(=O)c2cccc(NC(=O)c3ccc(-c4nccs4)cc3)c2O[C@@H]1CN(C)Cc1ccc(C(=O)Nc2ccccc2N)cc1
- AC50 [1]: 2.92 µM (active)

SMILES: CCN(C[C@H]1N[C@@](C)(C(=O)OC)[C@H]2C(=O)N(Cc3ccccc3)C(=O)[C@@H]12)C(=O)Nc1ccc(C)cc1
- AC50 [10]: 0.83 µM (active)
- AC50 [11]: 0.959 µM (active)
- AC50 [12]: 1.61 µM (active)
- AC50 [13]: 3.28 µM (active)

SMILES: N=C(Cc1ccc(Cl)c(Cl)c1)NOC(=O)c1ccc(Br)o1
- AC50 [14]: 8.23 µM (active)

SMILES: Sc1nnc(-c2ccco2)n1/N=C/C(Cl)=C/c1ccccc1
- AC50 [15]: 0.798 µM (active)
- IC50 (Genome polyprotein): 62.7 µM (active)

SMILES: CC(C)(C)c1nn(-c2ccccc2)c2nc(O)c(C=O)cc12
- AC50 [16]: 6.32 µM (active)
- AC50 [14]: 1.68 µM (active)

SMILES: CCCCC(CC)CN1C(=O)/C(=C/c2ccncc2)SC1=S (stereo unspecified)
- EC50 [17]: 2.59 µM (active)
- EC50 (BJ [3]): > 150 µM (not active)
- EC50 (Streptokinase A): > 150 µM (not active)
- EC50 (BJ [4]): > 150 µM (not active)
- EC50 (BJ [7]): > 150 µM (not active)
- EC50 [8]: > 150 µM (not active)
- EC50 (Streptococcus): 9.05 µM (active)
- AC50 [16]: 7.84 µM (active)
- AC50 (INS1): 17.7 µM (active)

SMILES: CCC(C)(C)NC(=O)C(c1ccccc1F)N(Cc1ccco1)C(=O)c1csnn1 (stereo unspecified)
- AC50 [10]: 5 µM (active)
- AC50 [11]: 22.6 µM (active)
- AC50 [12]: 7.86 µM (active)
- AC50 [13]: 36.2 µM (active)

SMILES: Cc1noc(C)c1S(=O)(=O)N(C)C[C@H]1Oc2c(NC(=O)c3ccc(-c4nccs4)cc3)cccc2C(=O)N([C@@H](C)CO)C[C@H]1C
- AC50 [1]: 5.82 µM (active)

SMILES: CCc1ccc([C@H]2[C@@H]3C(=O)C[C@@H]4C(=O)N(Cc5ccccc5)C(=O)[C@@H]4[C@@H]3CN2S(=O)(=O)c2ccc(C)cc2)cc1
- AC50 [10]: 1.17 µM (active)
- AC50 [11]: 1.48 µM (active)
- AC50 [12]: 1.8 µM (active)
- AC50 [13]: 11.3 µM (active)

SMILES: CCOC(=O)c1c(CSc2ccccc2)oc2cc(Br)c(O)c(CN(C)C)c12
- AC50 [10]: 0.907 µM (active)
- AC50 [11]: 1.58 µM (active)
- AC50 [12]: 1.38 µM (active)
- AC50 [13]: 2.46 µM (active)

SMILES: CCOC(=O)[C@H]1[C@H]2COc3ccccc3[C@@H]2N2C(=O)c3c(C)cc(C)cc3NC(=O)[C@@]12C
- AC50 [10]: 0.712 µM (active)
- AC50 [11]: 1.7 µM (active)
- AC50 [12]: 1.04 µM (active)
- AC50 [13]: 0.611 µM (active)

SMILES: C[C@H]1CN([C@@H](C)CO)C(=O)c2cccc(NC(=O)Nc3ccc(C(F)(F)F)cc3)c2O[C@H]1CN(C)Cc1ccc(C(F)(F)F)cc1
- AC50 [1]: 3.22 µM (active)

SMILES: COc1ccc(S(=O)(=O)Nc2ccc3c(c2)CC(=O)N([C@H](C)CO)C[C@@H](C)[C@@H](CN(C)S(=O)(=O)c2ccc(OC)cc2)O3)cc1
- AC50 [1]: 3.98 µM (active)
